# Like-named read-outs stand apart in the source and are kept apart here. In the oligonucleotide strings, read from the 5' end, every base follows the letter of its sugar. An asterisk marks phosphorothioate; unmarked linkages are phosphodiester. Other units and linkages are bracketed, terminal groups are in braces. A string of capitals states the bases alone. d = 2'-deoxy (DNA)
# Legend:
# [1] = tested on: AsPC-1 cells; test: Cell growth with gemcitabine treatment after sDNA transfection, AsPC-1; format: cell-based, Human; settings: AsPC-1, 0.25 ug sDNA, 96 hours
# [2] = tested on: Miapaca-2 cells; test: Cell growth with gemcitabine treatment after sDNA transfection, Miapaca-2; format: cell-based, Human; settings: 96 hours; for Fold change in numbers of viable cells normalized relative to TC: Miapaca-2, 0.1 ug sDNA
# Description: (§1) Cells were fixed after 96 hours and numbers of viable cells counted by measuring the absorbance at 570 nm.
# (§2) Cells were transfected with 0.1 μg of TC-sDNA, Mix-sDNA, CG-sDNA, and AT-sDNA.
# [3] = tested on: Miapaca-2 cells; test: Cell viability (crystal violet) after sDNA transfection, Miapaca-2; format: cell-based, Human; settings: for cells dead compared to UT: versus untransfected (UT) cells; for Fold change in numbers of viable cells between TC and sDNA transfected cells (in parentheses) / Fold change in numbers of viable cells between UT and transfected cells: 96 h after transfection
# Description: The absorbance was measured at 570 nm in quadruplicate. All data from control cells were combined and averaged.
# [4] = tested on: AsPC-1 cells; test: Cell growth with gemcitabine treatment after sDNA transfection, AsPC-1; format: cell-based, Human; settings: AsPC-1, 0.1 ug sDNA, 96 hours
# Description: as §1, §2
# [5] = tested on: Miapaca-2 cells; test: Cell growth with gemcitabine treatment after sDNA transfection, Miapaca-2; format: cell-based, Human; settings: 96 hours
# [6] = tested on: HMGA1 expression levels in AsPC-1 cells; test: Western blot of HMGA1 expression levels in AsPC-1 nuclear extracts; format: cell-based, Human; settings: AsPC-1, 0.5 μg sDNA in six well plates, 48 hours
# Description: Cytoplasmic and nuclear protein extracts were prepared from pancreatic cancer cells using NE-PER extraction kit (Thermo Scientific, Rockford, Ill.). Protein concentrations were determined using a bicinchoninic acid assay with bovine serum albumin as a standard. Nuclear proteins that contained 25 or 15 μg total protein were separated by SDS-PAGE with a 4%-20% Criterion gradient gel (Bio-Rad Laboratories, Inc., Hercules, Calif.). The proteins were transferred to immuno-blot PVDF membrane (0.2 μm) (Bio-Rad Laboratories, Inc., Hercules, Calif.) and blocked in 5% dry milk in PBS supplemented with 0.2% Tween 20 (PBST). The PVDF membranes were then probed with 1:1000 dilution of rabbit anti-HMGA1 antibody (Santa Cruz Biotechnology Inc, Santa Cruz, Calif.) and 1:100 dilution of rabbit anti-HMGA2 antibody (Abcam plc, Cambridge, Mass.), in 3% BSA in PBST at 4° C. overnight. After three washes with PBST, the membrane was blotted with secondary antibody, ant-rabbit IgG-HRP (cell signaling) 1:5000 dilution in 1% dry milk in PBST at room temperature for 1 hour. An enhanced chemiluminescence detection (ECL, GE Healthcare Life Sciences, Piscataway, N.J.) system was used to detect target proteins. To ensure equal loading of the proteins between groups, membranes were re-probed with anti-TATA binding protein antibody (Abcam plc, Cambridge, Mass.). […] The control was nuclear extract from untreated cells. Triplicates of each sample were run on the gel and analyzed with the Alpha Imager. The relative HMGA1 densities were obtained by dividing HMGA 1 density by TBP density. […] TATA binding protein (TBP) was used as a loading control. […] HMGA1 expression levels were examined after transfection with CG-sDNA or AT-sDNA to determine if the transfection procedure affected HMGA1 expression levels. The AT-sDNA used for transfection contained an 18 adenine/thymine stretch enabling HMGA1 to bind the DNA with all three AT-hooks. As a negative control, a non-HMGA1-targeted sDNA containing an equal length of DNA but with no AT-stretches, i.e. CG-sDNA, was used. […]
# [7] = tested on: AsPC-1 cells; settings: for cell death: 96 h, compared to non-transfected cells; for cells dead compared to UT: versus untransfected (UT) cells; for Fold change in numbers of viable cells between TC and sDNA transfected cells (in parentheses) / Fold change in numbers of viable cells between UT and transfected cells: 96 h after transfection
# Description: AsPC-1 cells were grown in Roswell Park Memorial Institute medium supplemented with 10% FBS, and 1% penicillin-streptomycin.
# Transfections using sDNA at concentrations of 0.1 and 0.25 μg per well were conducted with 5×10^4 and 1×10^5 Miapaca-2 and AsPC-1 cells, respectively, in 24-well plates and all data were collected in quadruplicate. Miapaca-2 and AsPC-1 cells were transfected with sDNA using Lipofectamine 2000 (Invitrogen,™ Life Technologies Corporation, Carlsbad, Calif.) according to the manufacturer's protocol.
# Briefly, AsPC-1 cells grown in 10% FBS containing RPIM medium were trypsinized using a trypsin-EDTA solution commercially available from the Sigma-Aldrich, and used to seed fresh media in a 24-well plate with 10^5 cells per well.
# After 48 hours, the cells were transfected with the selected sDNA using Lipofectamine 2000 (Invitrogen,™ Life Technologies Corporation, Carlsbad, Calif.) according to the manufacturer's protocol. […] The cells were then fixed with 4% paraformaldehyde in PBS for 20 minutes and stained in 0.1% crystal violet stain (Sigma-Aldrich) for 30 minutes. The cells were washed under running tap water, air dried, and extracted with 0.2% Triton™ X-100 for 30 minutes. […] The absorbance of the Triton X-100 was measured at 570 nm using a HTS microplate reader. All results were analyzed for statistical significance using a student's unpaired t-test.
substance,measurement,setting,value
"CG-sDNA: CG-rich phosphorothioate DNA (SEQ ID NO: 12), negative control with no AT-stretches (DNA dC*dC*dC*dC*dG*dG*dG*dC*dC*dC*dC*dG*dG*dC*dC*dG*dG*dG*dC*dG*dC*dC*dG*dC)",Fold change in numbers of viable cells normalized relative to TC,[1]; Gemcitabine 0 nM,−1.10 fold
same,Fold change in numbers of viable cells normalized relative to TC,[1]; Gemcitabine 1 nM,−1.10 fold
same,Fold change in numbers of viable cells normalized relative to TC,[1]; Gemcitabine 10 nM,−1.21 fold
same,Fold change in numbers of viable cells normalized relative to TC,[1]; Gemcitabine 30 nM,−1.69 fold
same,Fold change in numbers of viable cells normalized relative to TC,[1]; Gemcitabine 100 nM,−1.36 fold
same,Fold change in numbers of viable cells normalized relative to TC,[1]; Gemcitabine 1000 nM,−2.16 fold
same,cells dead / change in cell viability,"[2]; Miapaca-2, 0.1 μg sDNA, 1 nM gemcitabine",no significant change
same,cells surviving,"[2]; Miapaca-2, 0.1 μg sDNA, 10 nM gemcitabine, normalized to 0 nM gemcitabine",83.9%
same,Fold change in numbers of viable cells normalized relative to TC,[2]; Gemcitabine 0 nM,1.09 fold
same,Fold change in numbers of viable cells normalized relative to TC,[2]; Gemcitabine 10 nM,−1.09 fold
same,Fold change in numbers of viable cells normalized relative to TC,[2]; Gemcitabine 30 nM,−3.29 fold
same,Fold change in numbers of viable cells normalized relative to TC,[2]; Gemcitabine 100 nM,−4.06 fold
same,Fold change in numbers of viable cells normalized relative to TC,[2]; Gemcitabine 1000 nM,−4.24 fold
same,cells dead compared to UT,"[3]; Miapaca-2, 0.1 ug sDNA, 48 hrs",36.3%
same,Fold change in numbers of viable cells between TC and sDNA transfected cells (in parentheses),"[3]; Miapaca-2, 0.1 μg sDNA",(1.09) fold
same,Fold change in numbers of viable cells between UT and transfected cells,"[3]; Miapaca-2, 0.1 μg sDNA",−1.43 fold
same,cells dead compared to UT,"[3]; Miapaca-2, 0.1 ug sDNA, 96 hrs",32.0%
same,difference in cell viability between TC cells and sDNA transfected cells,"[3]; Miapaca-2, 0.1 ug sDNA, both 48 and 96 hours",no significant differences
same,Fold change in numbers of viable cells between TC and sDNA transfected cells (in parentheses),"[3]; Miapaca-2, 0.25 μg sDNA",(−1.30) fold
same,Fold change in numbers of viable cells between UT and transfected cells,"[3]; Miapaca-2, 0.25 μg sDNA",−2.15 fold
same,Fold change in numbers of viable cells normalized relative to TC,[4]; Gemcitabine 0 nM,−1.11 fold
same,Fold change in numbers of viable cells normalized relative to TC,[4]; Gemcitabine 1 nM,−1.09 fold
same,Fold change in numbers of viable cells normalized relative to TC,[4]; Gemcitabine 10 nM,−1.18 fold
same,Fold change in numbers of viable cells normalized relative to TC,[4]; Gemcitabine 30 nM,−1.34 fold
same,Fold change in numbers of viable cells normalized relative to TC,[4]; Gemcitabine 100 nM,−1.52 fold
same,Fold change in numbers of viable cells normalized relative to TC,[4]; Gemcitabine 1000 nM,−1.67 fold
same,Fold change in numbers of viable cells normalized relative to TC,"[5]; Miapaca-2, 0.1 ug sDNA, Gemcitabine 1 nM",1.12 fold
same,Fold change in numbers of viable cells normalized relative to TC,"[5]; Miapaca-2, 0.25 ug sDNA, Gemcitabine 0 nM",−1.30 fold
same,Fold change in numbers of viable cells normalized relative to TC,"[5]; Miapaca-2, 0.25 ug sDNA, Gemcitabine 1 nM",−1.38 fold
same,Fold change in numbers of viable cells normalized relative to TC,"[5]; Miapaca-2, 0.25 ug sDNA, Gemcitabine 10 nM",−1.37 fold
same,Fold change in numbers of viable cells normalized relative to TC,"[5]; Miapaca-2, 0.25 ug sDNA, Gemcitabine 30 nM",−2.97 fold
same,Fold change in numbers of viable cells normalized relative to TC,"[5]; Miapaca-2, 0.25 ug sDNA, Gemcitabine 100 nM",−5.48 fold
same,Fold change in numbers of viable cells normalized relative to TC,"[5]; Miapaca-2, 0.25 ug sDNA, Gemcitabine 1000 nM",−4.11 fold
same,change in HMGA1 expression levels after sDNA transfection,[6],no changes
same,cell death,"[7]; AsPC-1, 0.1 μg sDNA per well",12%
same,cells dead compared to UT,"[7]; AsPC-1, 0.1 ug sDNA, 48 hrs",33.8%
same,Fold change in numbers of viable cells between TC and sDNA transfected cells (in parentheses),"[7]; AsPC-1, 0.1 μg sDNA",(−1.11) fold
same,Fold change in numbers of viable cells between UT and transfected cells,"[7]; AsPC-1, 0.1 μg sDNA",−1.20 fold
same,cells dead compared to TC,"[7]; AsPC-1, 0.1 μg sDNA, 96 hrs, versus transfection control (TC) cells",9.7%
same,cells dead compared to UT,"[7]; AsPC-1, 0.1 ug sDNA, 96 hrs",14.3%
same,difference in cell viability between TC cells and sDNA transfected cells,"[7]; AsPC-1, 0.1 ug sDNA, both 48 and 96 hours",no significant differences
same,cell death,"[7]; AsPC-1, 0.25 μg sDNA per well",16%
same,Fold change in numbers of viable cells between TC and sDNA transfected cells (in parentheses),"[7]; AsPC-1, 0.25 μg sDNA",(−1.10) fold
same,Fold change in numbers of viable cells between UT and transfected cells,"[7]; AsPC-1, 0.25 μg sDNA",−1.19 fold
same,cell death compared to TC,"[7]; AsPC-1, 0.25 μg sDNA, 96 hours, versus TC cells",9.0%
same,cell death,"[7]; AsPC-1, 1.0 μg sDNA per well",60%
same,cells dead compared to TC,"[7]; AsPC-1, 1.0 μg sDNA, 96 hours, versus TC cells",56.4%

# From patent publication US9492470B2, “Use of HMGA-targeted phosphorothioate DNA aptamers to suppress carcinogenic activity and increase sensitivity to chemotherapy agents in human cancer cells” (MIAMI UNIVERSITY, priority 2012, dated 2016)
